The values that follow are results of earlier work, collected in US8647676B2, “Antimicrobial composition from copepods” (priority 2008, dated 2014).

For this data set the following is noted: Iwamoto et al. Tetrahedron, 1999 vol. 55 p. 14353.

As for penostatin, the “cytotoxicity (in words)” value is recorded as “mild cytotoxic”.
